The supplement of paper PMC10307832

Experiments:
Experiment in all cases: relative viability (nuclei count vs DMSO), 5 days (fraction); higher = more cells survive
[1] = compound: C1CC2=C(C1)C=C(C=C2)OC3=NC(=C4C(=N3)N(C=N4)CC5=CC=C(C=C5)C6=CC=CC=C6)N[C@@H](CC7=CC=CC=C7)CO [QS11] + Cc1nc(NC(=O)N2CCC[C@H]2C(N)=O)sc1-c1ccnc(C(C)(C)C(F)(F)F)c1 [Alpelisib] (partner 2 µM)
Procedure, shortened: (§1)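 Nuclei were stained with Hoechst during a one-step fixation (final 0.05% Triton X-100, 1% formaldehyde, 1 ug/ml Hoechst) carried out 5 days after dosing, then counted on 4× images. The cells, lung cancer lines in 1536-well plates, had been dosed by pin tool the day after seeding with one drug alone or a fixed anchor-drug dose plus five library-drug doses (not always all listed) in √10 steps. Relative viability is the nuclei count in treated wells divided by that in vehicle wells, and each value is the median of duplicate plates.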

[2] = compound: CC1=C(C=C(C=C1)NC(=O)C2=CC(=CC=C2)C(C)(C)C#N)NC3=CC4=C(C=C3)N=CN(C4=O)C [AZ628] + C[C@@H](Oc1cc(-c2cnn(C3CCNCC3)c2)cnc1N)c1c(Cl)ccc(F)c1Cl [Crizotinib] (partner 1 µM)
Procedure, shortened: as §1

[3] = compound: CC1=C(C=C(C=C1)NC(=O)C2=CC(=CC=C2)C(C)(C)C#N)NC3=CC4=C(C=C3)N=CN(C4=O)C [AZ628] + Cc1nc(NC(=O)N2CCC[C@H]2C(N)=O)sc1-c1ccnc(C(C)(C)C(F)(F)F)c1 [Alpelisib] (partner 2 µM)
Procedure, shortened: as §1

[4] = compound: C[As](C)SC[C@H](NC(=O)CC[C@H](N)C(=O)O)C(=O)NCC(=O)O [Darinaparsin] + Cc1nc(NC(=O)N2CCC[C@H]2C(N)=O)sc1-c1ccnc(C(C)(C)C(F)(F)F)c1 [Alpelisib] (partner 2 µM)
Procedure, shortened: as §1

| Cell Line | relative viability ([1]; first compound 0.08 µM) | relative viability ([1]; first compound 0.253 µM) | relative viability ([1]; first compound 0.8 µM) | relative viability ([1]; first compound 2.53 µM) | relative viability ([1]; first compound 8 µM) | relative viability ([2]; first compound 0.08 µM) | relative viability ([2]; first compound 0.253 µM) | relative viability ([2]; first compound 0.8 µM) | relative viability ([2]; first compound 2.53 µM) | relative viability ([2]; first compound 8 µM) | relative viability ([3]; first compound 0.08 µM) | relative viability ([3]; first compound 0.253 µM) | relative viability ([3]; first compound 0.8 µM) | relative viability ([3]; first compound 2.53 µM) | relative viability ([3]; first compound 8 µM) | relative viability ([4]; first compound 0.08 µM) | relative viability ([4]; first compound 0.8 µM) | relative viability ([4]; first compound 2.53 µM) | relative viability ([4]; first compound 8 µM) |
| --- | --- | --- | --- | --- | --- | --- | --- | --- | --- | --- | --- | --- | --- | --- | --- | --- | --- | --- | --- |
| HOP-62 | 0.968 | 0.927 | 0.956 | 0.85 | 0.535 | 1.06 | 0.834 | 0.926 | 1.16 | 0.412 | 1.02 | 1.11 | 0.947 | 1.24 | 0.451 | 1.24 | 0.755 | 0.786 | 0.991 |
| NCI-H1703 | 0.322 | 0.409 | 0.32 | 0.331 | 0.446 | 0.538 | 0.672 | 0.405 | 0.204 | 0.192 | 0.216 | 0.2 | 0.215 | 0.213 | 0.181 | 0.612 | 0.345 | 0.283 | 0.39 |
| NCI-H1437 | 1.1 | 1.13 | 0.834 | 0.9 | 0.879 | 0.869 | 0.822 | 0.899 | 0.995 | 0.932 | 0.958 | 0.976 | 1.02 | 1.01 | 0.988 | 1.17 | 0.942 | 0.92 | 1.16 |
| HCC-366 | 0.55 | 0.361 |  | 0.296 | 0.244 | 0.519 | 0.627 | 0.308 | 0.427 | 0.236 | 0.356 | 0.317 | 0.154 | 0.26 | 0.12 | 0.753 | 0.424 | 0.329 | 0.706 |
| NCI-H1299 | 1.09 | 1.1 | 1.02 | 0.962 | 1.05 | 1.1 | 1.06 | 1.16 | 1.16 | 0.651 | 1.01 | 1.22 | 1.22 | 1.24 | 0.763 | 1.09 | 1.18 | 0.904 | 1.18 |
| NCI-H1755 | 1.07 | 0.947 | 0.632 | 0.835 | 0.857 | 0.809 | 0.818 | 0.786 | 0.811 | 0.769 | 0.923 | 0.878 | 0.887 | 0.822 | 0.792 | 1.26 | 0.896 | 0.892 | 1.28 |
| NCI-H3122 | 0.879 | 1 | 0.745 | 1.12 | 0.839 | 0.349 | 0.252 | 0.29 | 0.238 | 0.234 | 0.631 | 0.337 | 0.342 | 0.268 | 0.233 | 0.9 | 0.796 | 0.735 | 1.01 |
| SW 1573 | 0.844 | 0.656 | 0.772 | 0.741 | 0.718 | 0.664 | 0.587 | 0.707 | 0.598 | 0.425 | 0.787 | 0.742 | 0.693 | 0.567 | 0.538 | 0.744 | 0.729 | 0.472 | 0.832 |
| NCI-H2085 | 0.922 | 1 | 1.02 | 1.06 | 1.12 | 0.84 | 0.928 | 0.912 | 0.911 | 0.69 | 1.06 | 0.965 | 1.03 | 0.856 | 0.714 | 1.07 | 1 | 1.03 | 0.957 |
| NCI-H727 | 0.509 | 0.99 | 0.593 | 0.54 | 0.325 | 0.706 | 0.523 | 0.452 | 0.368 | 0.258 | 0.499 | 0.308 | 0.301 | 0.318 | 0.23 | 0.718 | 0.587 | 0.549 | 0.683 |
| NCI-H2405 | 0.709 | 0.745 | 0.884 | 0.998 | 0.902 | 0.478 | 0.66 | 0.522 | 0.588 | 0.568 | 0.313 | 0.447 | 0.444 | 0.352 | 0.406 | 0.735 | 0.734 | 0.693 | 0.755 |
| NCI-H1666 | 0.917 | 1.03 | 0.708 | 0.587 | 0.382 | 1.09 | 0.901 | 0.819 | 0.761 | 0.632 | 0.79 | 0.765 | 0.522 | 0.534 | 0.425 | 1.11 | 0.967 | 1.14 | 1.06 |
